Experimental data as given in the Deep4Chem optical property database.
Each block holds one compound with its values, some of them ahead of it.

Assay: solvent given as SMILES

Structure (SMILES): N#Cc1ccc2cc[nH]c2c1
- fluorescence lifetime (in C1CCOC1): 3.7 ns
- fluorescence lifetime (in C1COCCO1): 3.9 ns
- fluorescence lifetime (in CC#N): 3.8 ns
- fluorescence lifetime (in CC(C)O): 3.7 ns
- fluorescence lifetime (in CCO): 3.7 ns
- fluorescence lifetime (in CO): 3.5 ns
- fluorescence lifetime (in CS(C)=O): 4.3 ns
- fluorescence lifetime (in NC=O): 4.2 ns
- fluorescence lifetime (in O): 0.6 ns
- fluorescence lifetime (in OCC(F)(F)F): 0.8 ns
- fluorescence lifetime (in [2H]OC([2H])([2H])C(F)(F)F): 1.1 ns
- fluorescence lifetime (in [2H]O[2H]): 0.8 ns

Structure (SMILES): CCN(CC)c1ccc(OC)c(C=O)c1
- fluorescence lifetime (in CC#N): 12.5 ns
- fluorescence lifetime (in CC(C)O): 0.96 ns
- fluorescence lifetime (in CCCCCC): 7.78 ns
- fluorescence lifetime (in CCOC(C)=O): 12.5 ns
- fluorescence lifetime (in CS(C)=O): 20.9 ns
- fluorescence lifetime (in Cc1ccccc1): 12.5 ns
- fluorescence lifetime (in ClCCl): 17 ns

Structure (SMILES): CC1(C)c2ccccc2N(c2ccc(-c3nnc(-c4cc(-c5ccccc5)c(-c5ccccc5)c(-c5ccccc5)c4-c4ccccc4)o3)cc2)c2ccccc21
- fluorescence lifetime (in c1ccc(-n2c(-c3c(-n4c5ccccc5c5ccccc54)cccc3-n3c4ccccc4c4ccccc43)nc3ccccc32)cc1): 5.5 ns

Structure (SMILES): Cc1ccc(NC(=O)c2sc(Br)nc2C)cc1
- fluorescence lifetime (in CO): 0.22 ns
- fluorescence lifetime (in ClC(Cl)Cl): 0.12 ns

Structure (SMILES): CCCCCCCCCCCCCCCCOc1cc(C#Cc2ccc3ccccc3c2-c2c(C#Cc3cc(OCCCCCCCCCCCCCCCC)c(C#Cc4ccc(C=C(C#N)C#N)cc4)cc3OCCCCCCCCCCCCCCCC)ccc3ccccc23)c(OCCCCCCCCCCCCCCCC)cc1C#Cc1ccc(C=C(C#N)C#N)cc1
- fluorescence lifetime (in Brc1ccccc1): 2.8 ns
- fluorescence lifetime (in C1CCCCC1): 2.02 ns
- fluorescence lifetime (in C1CCOC1): 1.25 ns
- fluorescence lifetime (in C1COCCO1): 3.06 ns
- fluorescence lifetime (in CCCCCC): 2.15 ns
- fluorescence lifetime (in CCCCCCCCO): 0.79 ns
- fluorescence lifetime (in CCCCOCCCC): 2.74 ns
- fluorescence lifetime (in CCOC(C)=O): 1.51 ns
- fluorescence lifetime (in CCOCC): 3.29 ns
- fluorescence lifetime (in Cc1ccccc1): 2.59 ns
- fluorescence lifetime (in ClC(Cl)(Cl)Cl): 2.16 ns
- fluorescence lifetime (in ClC(Cl)Cl): 2.35 ns
- fluorescence lifetime (in ClCCl): 0.79 ns

Structure (SMILES): Cc1cc(C)c(C)c(B(c2c(C)c(C)cc(C)c2C)c2c(C)c(C)c(N3c4ccccc4Oc4ccccc43)c(C)c2C)c1C
- fluorescence lifetime (in CC(C)(C)c1ccc(-n2c3ccc([Si](c4ccccc4)(c4ccccc4)c4ccccc4)cc3c3cc([Si](c4ccccc4)(c4ccccc4)c4ccccc4)ccc32)cc1): 5.9 ns

Structure (SMILES): CC(C)c1cc(C(C)C)c(B2c3ccccc3Oc3cc(-n4c5ccccc5c5ccc6c(c7ccccc7n6-c6ccccc6)c54)ccc32)c(C(C)C)c1
- fluorescence lifetime (in CC(C)c1cc(C(C)C)c(-c2ccc(-n3c4ccccc4n4c5ccccc5nc34)nc2)c(C(C)C)c1): 29.6 ns
- fluorescence lifetime (in O=P(c1ccccc1)(c1ccccc1)c1ccccc1Oc1ccccc1P(=O)(c1ccccc1)c1ccccc1): 27 ns

Structure (SMILES): N#CC(C#N)=C(/C=C/c1cc2c3c(c1)CCCN3CCC2)c1ccc2c3c(cccc13)CC2
- fluorescence lifetime (in C1CCOC1): 5.6 ns
- fluorescence lifetime (in CC#N): 2.62 ns
- fluorescence lifetime (in CC(C)=O): 2.8 ns
- fluorescence lifetime (in CCOC(C)=O): 5.46 ns
- fluorescence lifetime (in CN(C)C=O): 2.67 ns
- fluorescence lifetime (in CO): 1.63 ns
- fluorescence lifetime (in Cc1ccccc1): 4.48 ns
- fluorescence lifetime (in ClC(Cl)Cl): 6.68 ns

Structure (SMILES): c1ccc(N2c3ccc4ccccc4c3-c3c4ccccc4nc[n+]3[B-]2(c2ccccc2)c2ccccc2)cc1
- fluorescence lifetime (in C1CCC2CCCCC2C1): 3.42 ns
- fluorescence lifetime (in C1CCCCC1): 3.43 ns
- fluorescence lifetime (in C1CCOC1): 0.54 ns
- fluorescence lifetime (in CC#N): 0.21 ns
- fluorescence lifetime (in CC(C)=O): 0.21 ns
- fluorescence lifetime (in CCCCCC): 3.4 ns
- fluorescence lifetime (in CCOC(C)=O): 0.57 ns
- fluorescence lifetime (in Cc1ccccc1): 1.56 ns
- fluorescence lifetime (in ClC(Cl)Cl): 0.49 ns

The remaining lines, values ahead:

- fluorescence lifetime (in CC#N): 2.8 ns
Structure (SMILES): CCN(CC)c1ccc2cc(-c3nc4ccccc4n3C)c(=O)oc2c1

- fluorescence lifetime (in ClCCl): 1.31 ns
Structure (SMILES): COc1ccc(/C=C/C2=[O+][B-](F)(F)OC(/C=C/c3ccc(OC)cc3)=C2c2ccc(OC)cc2)cc1

- fluorescence lifetime (in CC#N): 5.84 ns
- fluorescence lifetime (in CCOC(C)=O): 3.77 ns
- fluorescence lifetime (in CN(C)C=O): 6.33 ns
- fluorescence lifetime (in CS(C)=O): 6.78 ns
- fluorescence lifetime (in c1ccccc1): 2 ns
Structure (SMILES): CCOC(=O)CN(CC(=O)OCC)c1ccc(-c2cc(-c3ccncc3)nc(-c3ccncc3)c2)cc1

- fluorescence lifetime (in CC#N): 2.41 ns
- fluorescence lifetime (in CO): 2.38 ns
- fluorescence lifetime (in O): 2.56 ns
Structure (SMILES): CNCCCC1c2ccccc2C=Cc2ccccc21

- fluorescence lifetime (in CC#N): 1.69 ns
- fluorescence lifetime (in CCO): 2.94 ns
- fluorescence lifetime (in CN(C)C=O): 2.16 ns
- fluorescence lifetime (in O): 1.74 ns
Structure (SMILES): CCOC(=O)c1ccccc1-c1c2ccc(=[N+](CC)CC)cc-2oc2cc(N(CC)CC)ccc12

- fluorescence lifetime (in CCO): 4.05 ns
- fluorescence lifetime (in ClC(Cl)Cl): 2.65 ns
- fluorescence lifetime (in ClCCl): 4.97 ns
Structure (SMILES): CCN(CC)c1ccc2cc3c([o+]c2c1)/C(=C/Nc1ccccc1)CCC3

- fluorescence lifetime (in ClCCl): 4.7 ns
Structure (SMILES): O=P1(c2ccccc2)C(c2ccc(N(c3ccccc3)c3ccccc3)cc2)=Cc2cc3ccccc3cc21 (stereo not drawn)
